Reference: the supplement of paper PMC8671470

Columns and labels:
Details in all cases: 72 h
[1] = system: myeloid leukemia patient primary cells Pat.10; assay: area under dose-response curve (viability, 1 nM-10 uM) (fraction (0-1)); higher = more sensitive
Protocol: (§1)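 AUC (0–1, higher = more sensitive) of the 5-point dose–response (1 nM–10 µM, 72 h, CellTiter-Glo) in primary AML/CML patient mononuclear cells. 0.030103 is the floor for inactive compounds.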

[2] = system: myeloid leukemia patient primary cells Pat.11; assay: as above
Protocol: as §1

[3] = system: myeloid leukemia patient primary cells Pat.12; assay: as above
Protocol: as §1

[4] = system: myeloid leukemia patient primary cells Pat.13; assay: as above
Protocol: as §1

[5] = system: myeloid leukemia patient primary cells Pat.14; assay: as above
Protocol: as §1

[6] = system: myeloid leukemia patient primary cells Pat.15; assay: as above
Protocol: as §1

[7] = system: myeloid leukemia patient primary cells Pat.1; assay: as above
Protocol: as §1

[8] = system: myeloid leukemia patient primary cells Pat.2; assay: as above
Protocol: as §1

[9] = system: myeloid leukemia patient primary cells Pat.3; assay: as above
Protocol: as §1

[10] = system: myeloid leukemia patient primary cells Pat.4; assay: as above
Protocol: as §1

[11] = system: myeloid leukemia patient primary cells Pat.5; assay: as above
Protocol: as §1

[12] = system: myeloid leukemia patient primary cells Pat.6; assay: as above
Protocol: as §1

[13] = system: myeloid leukemia patient primary cells Pat.7; assay: as above
Protocol: as §1

[14] = system: myeloid leukemia patient primary cells Pat.8; assay: as above
Protocol: as §1

[15] = system: myeloid leukemia patient primary cells Pat.9; assay: as above
Protocol: as §1

HL-60 = assay: cell viability (% survival relative to DMSO control); higher = less cytotoxic
Protocol: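 8x8 drug-combination matrices (0-5000 nM; rosiglitazone and lestaurtinib 0-1000 nM) were run in HL-60 cells for 72 h with a CellTiter-Glo read-out. Survival is normalised to DMSO and 10 µM bortezomib and clipped at 100%. Bliss synergy was analysed in SynergyFinder.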

O=C1O/C(=C/Br)CCC1c1cccc2ccccc12 (stereo not drawn) [Bromoenol Lactone]
Details | area under dose-response curve
[1] | 0.515
[2] | 0.0656
[3] | 0.084
[4] | 0.0877
[5] | 0.324
[6] | 0.132
[7] | 0.135
[8] | 0.0768
[9] | 0.447
[10] | 0.213
[11] | 0.828
[12] | 0.0918
[13] | 0.287
[14] | 0.0529
[15] | 0.651

O=C(C1CC1)N1CC[C@@H](C=C2NNC(=O)N2c2ccc(-c3ccc4occc4c3)cc2)C1 + C[C@H](NC(=O)c1sccc1OCc1ccc(Cl)cc1)c1ccccc1 [as1949490]
cell viability [%], HL-60
Details | drug1 concentration 5 nM | drug1 concentration 10 nM | drug1 concentration 50 nM | drug1 concentration 100 nM | drug1 concentration 500 nM | drug1 concentration 1000 nM | drug1 concentration 5000 nM
drug2 concentration 5 nM | 81.9 | 89 | 82.7 | 68 | 60.7 | 60.8 | 51.6
drug2 concentration 10 nM | > 100 | 86.7 | 79.5 | 65 | 58.1 | 58.4 | 48.5
drug2 concentration 50 nM | 99.3 | 83.4 | 74.8 | 57.3 | 59.3 | 51.9 | 42.1
drug2 concentration 100 nM | 95.7 | 83.4 | 68.3 | 53.2 | 56.1 | 48.8 | 37.7
drug2 concentration 500 nM | 88.6 | 78.1 | 63.5 | 56 | 46.3 | 49.6 | 38.5
drug2 concentration 1000 nM | 86.2 | 76.1 | 60.1 | 46.8 | 43.6 | 44.1 | 35.8
drug2 concentration 5000 nM | 80.8 | 72.6 | 57.6 | 43.4 | 44.8 | 40.9 | 33.3

O=C(C1CC1)N1CC[C@@H](C=C2NNC(=O)N2c2ccc(-c3ccc4occc4c3)cc2)C1 + O=C(c1c2ccccc2cc2ccccc12)N1CCC(N2CCC[C@@H](C(=O)N3CCOCC3)C2)CC1 [CP-640186]
cell viability [%], HL-60
Details | drug1 concentration 5 nM | drug1 concentration 10 nM | drug1 concentration 50 nM | drug1 concentration 100 nM | drug1 concentration 500 nM | drug1 concentration 1000 nM | drug1 concentration 5000 nM
drug2 concentration 5 nM | 79.6 | > 100 | 88.2 | 88.2 | 60 | 71.7 | 88.2
drug2 concentration 10 nM | 96.6 | 97.7 | 86.2 | 86.2 | 91.2 | 72 | 64.5
drug2 concentration 50 nM | 90 | 95.2 | 82.5 | 88 | 81.8 | 68.2 | 74.1
drug2 concentration 100 nM | 88 | 90 | 78.2 | 90.5 | 74.4 | 63.6 | 72.3
drug2 concentration 500 nM | 86.2 | 88.5 | 75.1 | 91.1 | 70.5 | 57.8 | 71.1
drug2 concentration 1000 nM | 84 | 84.2 | 70.3 | 75.1 | 61.5 | 56.3 | 79.2
drug2 concentration 5000 nM | 77.2 | 79.4 | 72 | 74.6 | 52.4 | 53.7 | 66.5
